In article PMC8526204, “Effects of Sinapic Acid Combined with Cisplatin on the Apoptosis and Autophagy of the Hepatoma Cells HepG2 and SMMC-7721” (Evidence-based Complementary and Alternative Medicine : eCAM, 2021):
Structures can show the parent of a compound that is named as a salt. Where two headings read alike, the source gives them in different places. Peptide text beside a SMILES is read from it. * marks the point of attachment. Cbz = O=C(OCc1ccccc1)*; CH2F = FC*

What was measured:
HepG2 cells [1] = experiment: Cell cycle analysis by flow cytometry (PI), HepG2; type: cell-based, human; conditions: 72 h, control 12.79 ± 0.89%
Procedure: The HepG2 and SMMC-7721 cells were seeded in a 6-well plate (5 × 10^5 cells/well). The cells were photographed using the inverted microscope (Eclipse Ti-S, Nikon Co., Ltd., Japan) to observe the morphological changes. The cells were collected, treated with 70% precooled ethanol (1 mL) in an ice bath, blew and mixed well, and then, fixed overnight at 4°C. The cells were stained with 25 µL PI staining solution and 10 µL RNase staining solution, according to the manufacturer's protocol, and the cell cycle was analyzed by flow cytometry (Attune NxT, Thermo Fisher Scientific Inc., USA).

HepG2 cells [2] = experiment: Western blot of apoptosis- and autophagy-related proteins, HepG2; type: cell-based, human
Procedure: (§1) The HepG2 and SMMC-7721 cells treated with Sa/DDP were collected and using radioimmunoprecipitation assay buffer to lyse the cells at 4°C for 30 min to extract the total protein. The protein concentration of the samples was measured using the BCA protein assay kit, after centrifugation at 12,000 g at 4°C for 5 min, and denatured by boiling at 100°C. An equal amount of protein (30 μg) was resolved using the sodium dodecyl sulfate-polyacrylamide gel (10–12%) electrophoresis for 1.5 h. The proteins were then transferred onto a membrane of nitrocellulose and blocked using 5% skimmed milk for 2 h at 20°C, followed by rinsing thrice using PBS containing 0.1% Tween 20 (PBS-T), for 5 min each. Furthermore, the […] were incubated in diluted anti-Bax, Bcl-2 PARP, c-PARP, a-caspase-3, caspase-3, p62, Beclin-1, Atg5, LC3I/II, and β-actin according to 1 : 1,000, incubated overnight at 4°C, and subsequently washed repeatedly the next day. The membranes were incubated with a secondary antibody (1 : 3000) for 1 h at ambient temperature and washed repeatedly. After washing the membrane, it was developed by the FluorChem M image acquisition system (Protein Simple Inc., USA). The quantification was performed (where appropriate) using the ImageJ software (Rawak Software Inc., Stuttgart, Germany).

[3] = MTT cell viability assay, HepG2; type: cell-based, human; conditions: human, HepG2 cells
Procedure: (§2) The cells HepG2, SMMC-7721, and HL-7702 were seeded in 96-well plates containing 6,000 cells per well, supplemented with various concentrations of Sa (0–2,000 μM) and DDP (5 μM). After the cells were incubated at 37°C for 24, 48, and 72 h, they were cultured with 20 µL MTT (5 mg/mL) for 4 h. The formazan crystals were dissolved by adding 150 µL of dimethyl sulfoxide, followed by recording the absorbance at 490 nm using a microplate reader (Varioskan LUX, Thermo Fisher Scientific Inc., USA) and calculating the percentage of cell viability.

HepG2 cells [4] = experiment: MTT cell viability assay, HepG2; type: cell-based, human; conditions: for IC50: Homo sapiens, HepG2, Sa treatment, MTT
Procedure: as §2

SMMC-7721 cells [5] = experiment: Western blot of apoptosis- and autophagy-related proteins, SMMC-7721; type: cell-based, human
Procedure: as §1

HepG2 cells [6] = experiment: Transwell migration assay, HepG2; type: cell-based, human; conditions: HepG2, Sa 600 μM, 24 h
Procedure: (§3) The lower section contained 700 μL of DMEM (including 10% FBS) along with the drug to be loaded. Briefly, 3 × 10^4 cells were added to the upper chamber while the lower chamber was filled with 10% FBS after incubating the cells for 24 h. The cells were cultured at 37°C for 24 h, fixed with a 4% paraformaldehyde solution, and stained with 0.5 mL of crystal violet. Subsequently, the cells in the upper chambers were removed by gently dabbing them with cotton swabs. These cells were photographed, and the invaded cells were observed using an inverted microscope (DM4 B, Leica Inc., Germany). Finally, the stained cells were counted in five randomly chosen fields under the microscope for further analysis.

SMMC-7721 cells [7] = experiment: MTT cell viability assay, SMMC-7721; type: cell-based; conditions: Homo sapiens, SMMC-7721, Sa treatment
Procedure: as §2, with “After” for “The cells HepG2, SMMC-7721, and HL-7702 were seeded in 96-well plates containing 6,000 cells per well, supplemented with various concentrations of Sa (0–2,000 μM) and DDP (5 μM). After”

SMMC-7721 cells [8] = experiment: Colony formation assay, SMMC-7721; type: cell-based, human; conditions: SMMC-7721, Sa 600 μM, 72 h then 10 d
Procedure: (§4) The HepG2 and SMMC-7721 cells were seeded in a 12-well plate (200–300 cells/well). […] Then, the recovery medium was added to the complete medium (1 mL) and cultured for 10 d. Subsequently, these cells were fixed in 4% paraformaldehyde solution (1 mL) at 37°C for 2 h, stained with 0.5% crystal violet staining solution (0.5 mL) for 15 min, and photographed, and the numbers of colonies formed were tabulated. The findings were expressed as a percentage of the number of colonies in each experimental group (assuming that the control group was 100%). The ImageJ software (Rawak Software Inc., Stuttgart, Germany) was used for analyzing the data.

SMMC-7721 cells [9] = experiment: Annexin V-FITC/PI apoptosis assay, SMMC-7721; type: cell-based, human; conditions: SMMC-7721, Sa 600 μM, 72 h; control 3.67 ± 0.34%
Procedure: (§5) The HepG2 and SMMC-7721 cells were seeded into a 6-well plate (1 × 10^5 cell/well), and after 72 h, the cells in each group were treated with trypsin and collected. The cells were rinsed twice in PBS, and a concentration of 5 × 10^5 cells/mL was treated with a binding buffer. According to the manufacturer's protocol, the cells were stained with 5 µL PI staining solution and 10 µL Annexin V-FITC staining solution with incubation for 30 min in the dark.

HepG2 cells [10] = experiment: Colony formation assay, HepG2; type: cell-based, human; conditions: HepG2, Sa 600 μM, 72 h then 10 d
Procedure: as §4

HepG2 cells [11] = experiment: Annexin V-FITC/PI apoptosis assay, HepG2; type: cell-based, human; conditions: HepG2, Sa 600 μM, 72 h; control 13.06 ± 1.04%
Procedure: as §5

SMMC-7721 cells [12] = experiment: Transwell migration assay, SMMC-7721; type: cell-based, human; conditions: SMMC-7721, Sa 600 μM, 24 h
Procedure: as §3

HL-7702 cells = experiment: MTT cell viability assay, normal liver HL-7702; type: cell-based, human; conditions: for IC50: Homo sapiens, L02, HL-7702, Sa treatment, MTT
Procedure: as §2, with “After” for “The cells HepG2, SMMC-7721, and HL-7702 were seeded in 96-well plates containing 6,000 cells per well, supplemented with various concentrations of Sa (0–2,000 μM) and DDP (5 μM). After”

[13] = HepG2, HCQ 40 μM pretreatment 1 h then Sa 600 µM/DDP 5 µM 72 h
[14] = HepG2, Sa 600 μM, 72 h, vs control
[15] = HepG2, Sa 600 μM, 72 h, western blot
[16] = SMMC-7721, Sa 600 μM, 72 h, vs control
[17] = HepG2, Z-VAD-FMK 20 µM pretreatment 1 h then Sa 600 µM/DDP 5 µM 72 h

N.N.[Cl][Pt][Cl] [DDP, Cisplatin]
percentage of cells in the G2/M phase (HepG2 cells [1]; HepG2, DDP 5 μM): 15.40 ± 1.23%

CCN(CCO)CCCC(C)Nc1ccnc2cc(Cl)ccc12 (stereo not shown) [HCQ, Hydroxychloroquine sulfate, reference compound]
a-caspase-3 protein expression increase compared to Sa/DDP treatment (HepG2 cells [2]; [13]): 0.34 times
viability at 1 h, 40 μM ([3]; HepG2, HCQ 40 μM pretreatment 1 h, no Sa/DDP, untreated 100.00 ± 19.04%): 98.3 ± 18.7%
reduction of cell viability compared to Sa/DDP (HepG2 cells [4]; [13]): 19.07 ± 4.70%
a-caspase-3 protein expression increase compared to Sa/DDP treatment (SMMC-7721 cells [5]; SMMC-7721, HCQ 40 µM pretreatment 1 h then Sa 600 µM/DDP 5 µM 72 h): 0.73 times

COc1cc(/C=C/C(=O)O)cc(OC)c1O [Sa, Sinapic acid]
decrease of the migration rate (HepG2 cells [6]): 41.52 ± 8.80%
Atg5 protein expression increase (HepG2 cells [2]; [14]): 2.9 fold
Beclin-1 protein expression increase (HepG2 cells [2]; [14]): 4.8 fold
p62 protein expression decrease (HepG2 cells [2]; [14]): 2.3 fold
cleaved PARP protein increase vs control (HepG2 cells [2]; [15]): 4.3 times
cleaved caspase-3 protein increase vs control (HepG2 cells [2]; [15]): 13.6 times
IC50 (SMMC-7721 cells [7]; 24 h, read-out: IC50 24 h): 2580 µM
IC50 (SMMC-7721 cells [7]; 48 h, read-out: IC50 48 h): 1620 µM
IC50 (SMMC-7721 cells [7]; 72 h, read-out: IC50 72 h): 1350 µM
proliferation activity (colony formation, control = 100%) (SMMC-7721 cells [8]): 72.90 ± 1.29%
percentage of cells in the G2/M phase (HepG2 cells [1]; HepG2, Sa 600 μM): 22.60 ± 2.26%
viability at 72 h, 600 µM ([3]; HepG2, Sa 600 µM, 72 h): 71.3 ± 4.08%
IC50 (HepG2 cells [4]; 24 h, read-out: IC50 24 h): 1800 µM
IC50 (HepG2 cells [4]; 48 h, read-out: IC50 48 h): 1380 µM
IC50 (HepG2 cells [4]; 72 h, read-out: IC50 72 h): 794 µM
apoptosis rate (SMMC-7721 cells [9]): 10.74 ± 0.75%
Atg5 expression increase (SMMC-7721 cells [5]; [16]): 4.7 times
Beclin-1 expression increase (SMMC-7721 cells [5]; [16]): 2.5 times
p62 expression decrease (SMMC-7721 cells [5]; [16]): 1.7 times
proliferation activity (colony formation, control = 100%) (HepG2 cells [10]): 71.46 ± 2.23%
apoptosis rate (HepG2 cells [11]): 36.00 ± 2.52%
decrease of the migration rate (SMMC-7721 cells [12]): 49.80 ± 5.78%
inhibitory effect on normal liver cells (HL-7702 cells; HL-7702, MTT): not pronounced
IC50 (HL-7702 cells; 24 h, read-out: IC50 24 h): 5060 µM
IC50 (HL-7702 cells; 48 h, read-out: IC50 48 h): 4430 µM
IC50 (HL-7702 cells; 72 h, read-out: IC50 72 h): 4020 µM

COC(=O)C[C@H](NC(=O)[C@H](C)NC(=O)[C@@H](NC(=O)OCc1ccccc1)C(C)C)C(=O)CF [Z-VAD-FMK, reference compound] (Cbz-Val-Ala-Asp(OMe)-CH2F)
LC3II protein expression increase compared to group without Z-VAD-FMK (HepG2 cells [2]; [17]): 45.30 ± 2.05%
caspase protein lysis decrease compared to group without Z-VAD-FMK (HepG2 cells [2]; [17]): 25.22 ± 1.22%
cell viability (HepG2 cells [4]; HepG2, Z-VAD-FMK 20 μM pretreatment 1 h, no Sa/DDP, untreated 100.00 ± 19.04%): 100.66 ± 12.14%
